Legend:
NS3 [1] = target: T1, NS3 (Hepatitis C virus, UniProt A3EZJ3); assay: Ability to inhibit the hydrolysis of chromogenic 4-phenylazophenyl ester from the peptide fragment Ac- DTEDVVP(Nva)-O-4-PAP in a HCV protease continuous assay; set-up: species or system Hepacivirus hominis
Neutrophil elastase = target: T2, Neutrophil elastase (Homo sapiens, UniProt P08246); assay: Binding constant towards Human neutrophil elastase HNE protease
T2 sequence (P08246 whole entry): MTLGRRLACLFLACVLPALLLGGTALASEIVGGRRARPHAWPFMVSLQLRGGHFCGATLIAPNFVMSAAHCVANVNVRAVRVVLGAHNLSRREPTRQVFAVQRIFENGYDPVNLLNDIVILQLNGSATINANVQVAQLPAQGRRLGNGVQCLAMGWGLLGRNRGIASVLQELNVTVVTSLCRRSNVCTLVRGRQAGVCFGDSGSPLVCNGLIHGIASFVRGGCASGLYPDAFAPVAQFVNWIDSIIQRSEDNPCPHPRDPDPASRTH

NS3 [2] = target: T1, NS3; assay: Ability to inhibit the hydrolysis of chromogenic […] ester from the peptide fragment Ac- DTEDVVP(Nva)-O-4-PAP in a HCV protease continuous assay; set-up: species or system Hepacivirus hominis

T1 sequence (A3EZJ3 whole entry, the tested form may be a part): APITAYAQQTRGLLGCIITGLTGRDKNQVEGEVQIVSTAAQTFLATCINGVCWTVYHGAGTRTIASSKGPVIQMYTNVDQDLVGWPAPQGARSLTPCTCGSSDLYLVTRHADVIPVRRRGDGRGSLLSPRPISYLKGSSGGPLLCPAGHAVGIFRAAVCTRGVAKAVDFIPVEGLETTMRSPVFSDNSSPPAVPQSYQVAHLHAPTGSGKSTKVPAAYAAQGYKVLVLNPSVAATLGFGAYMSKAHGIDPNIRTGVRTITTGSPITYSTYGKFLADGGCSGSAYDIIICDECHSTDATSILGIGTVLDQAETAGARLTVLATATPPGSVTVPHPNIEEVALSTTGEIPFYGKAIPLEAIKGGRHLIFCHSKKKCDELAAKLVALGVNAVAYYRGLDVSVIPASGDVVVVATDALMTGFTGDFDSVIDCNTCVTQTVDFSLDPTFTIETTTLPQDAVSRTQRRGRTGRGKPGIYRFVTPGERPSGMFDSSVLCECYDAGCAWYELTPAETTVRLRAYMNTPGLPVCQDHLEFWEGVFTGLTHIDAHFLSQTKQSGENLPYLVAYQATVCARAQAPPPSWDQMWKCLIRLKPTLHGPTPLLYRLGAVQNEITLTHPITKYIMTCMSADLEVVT

SMILES | Ki (NS3 [1]) [nM] | Ki (Neutrophil elastase) [nM] | Ki (NS3 [2]) [nM]
CCC[C@H](NC(=O)[C@@H]1Cc2cccc(c2)Oc2ccc(cc2)CCC(=O)N[C@@H](C2CCCCC2)C(=O)N1)C(=O)C(=O)NCC(=O)N[C@H](C(=O)O)c1ccccc1 | 110 | 2900 | 
CCC[C@H](NC(=O)[C@@H]1Cc2cccc(c2)Oc2ccc(cc2)CCCCC(=O)N[C@@H](C2CCCCC2)C(=O)N1)C(=O)C(=O)NCC(=O)N[C@H](C(=O)O)c1ccccc1 | 160 |  | 300
CCC[C@H](NC(=O)[C@@H]1Cc2cccc(c2)Oc2ccc(cc2)C[C@H](NC(=O)OC(C)(C)C)C(=O)N[C@@H](C2CCCCC2)C(=O)N1)C(=O)C(=O)NCC(=O)N[C@H](C(=O)O)c1ccccc1 | 7800 |  | 
CCC[C@H](NC(=O)[C@@H]1Cc2cccc(c2)Oc2ccc(cc2)C[C@H](NC(=O)OC(C)(C)C)C(=O)N[C@@H](C2CCCCC2)C(=O)N1)C(=O)C(=O)NCC(=O)O | 12000 |  | 

Next, values leading:

Ki (NS3 [1]) [nM] | Ki (Neutrophil elastase) [nM] | Ki (NS3 [2]) [nM] | SMILES
800 |  |  | CCC[C@H](NC(=O)[C@@H]1Cc2cccc(c2)Oc2ccc(cc2)C[C@H](NC(C)=O)C(=O)N[C@@H](C2CCCCC2)C(=O)N1)C(=O)C(=O)NCC(=O)N[C@H](C(=O)O)c1ccccc1
300 |  |  | CCC[C@H](NC(=O)[C@@H]1Cc2cccc(c2)Oc2ccc(cc2)CCCC(=O)N[C@@H](C2CCCCC2)C(=O)N1)C(=O)C(=O)NCC(=O)N[C@H](C(=O)O)c1ccccc1

From ChEMBL document CHEMBL1140351, “Design and synthesis of depeptidized macrocyclic inhibitors of hepatitis C NS3-4A protease using structure-based drug design” (J Med Chem, 2005)
